Results as given in PubChem BioAssay (NCI).
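These data come from cells grown in 96-well plates and exposed to compound for 48 hours at five concentrations. Here, GI50 denotes the concentration required for 50% inhibition of growth. TGI: total growth inhibition.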

Tests used:
Experiment in all cases: inhibition of tumour cell growth, NCI panel, 48 h
A549 NSCLC = test system: A549 NSCLC
CAKI-1 renal = test system: CAKI-1 renal
LOX IMVI melanoma = test system: LOX IMVI melanoma
SF-268 CNS = test system: SF-268 CNS
SK-MEL-5 melanoma = test system: SK-MEL-5 melanoma
SK-OV-3 ovarian = test system: SK-OV-3 ovarian
SNB-75 CNS = test system: SNB-75 CNS
SR leukemia = test system: SR leukemia
SK-MEL-2 melanoma = test system: SK-MEL-2 melanoma
T-47D breast = test system: T-47D breast

Structure (SMILES): COC(=O)C1=Cc2cc3c(cc2[C@H](c2ccc4c(c2)OCO4)C1C(=O)OC)OCO3 (some centres undefined)
- TGI (A549 NSCLC): > 100 µM
- TGI (CAKI-1 renal): > 100 µM
- TGI (LOX IMVI melanoma): > 100 µM
- TGI (SF-268 CNS): > 100 µM
- TGI (SK-MEL-5 melanoma): > 100 µM
- TGI (SK-OV-3 ovarian): > 100 µM
- TGI (SNB-75 CNS): > 100 µM
- TGI (SR leukemia): > 100 µM

Structure (SMILES): CCOC(=O)C(C(=O)c1ccccc1-c1ccccc1C(=O)O)=P(c1ccccc1)(c1ccccc1)c1ccccc1
- TGI (A549 NSCLC): > 100 µM
- TGI (LOX IMVI melanoma): 40.8 µM
- TGI (SF-268 CNS): > 100 µM
- TGI (SK-MEL-2 melanoma): 40.3 µM
- TGI (SK-MEL-5 melanoma): 29.6 µM
- TGI (SNB-75 CNS): 47.8 µM
- TGI (SR leukemia): 85.1 µM

Structure (SMILES): CCCOC(=O)C1CCC(=O)N1C(=O)C(Cl)Cl (centres undefined)
- TGI (A549 NSCLC): > 100 µM
- TGI (CAKI-1 renal): > 100 µM
- TGI (LOX IMVI melanoma): > 100 µM
- TGI (SF-268 CNS): > 100 µM
- TGI (SK-MEL-2 melanoma): > 100 µM
- TGI (SK-MEL-5 melanoma): > 100 µM
- TGI (SK-OV-3 ovarian): > 100 µM
- TGI (SNB-75 CNS): > 100 µM

Structure (SMILES): COC(=O)C1=C(O)C(O)=C(C(=O)OC)CC1
- TGI (A549 NSCLC): > 100 µM
- TGI (CAKI-1 renal): > 100 µM
- TGI (LOX IMVI melanoma): > 100 µM
- TGI (SF-268 CNS): > 100 µM
- TGI (SK-MEL-2 melanoma): > 100 µM
- TGI (SK-MEL-5 melanoma): > 100 µM
- TGI (SK-OV-3 ovarian): > 100 µM
- TGI (SNB-75 CNS): > 100 µM
- TGI (SR leukemia): > 100 µM

Structure (SMILES): COC(=O)C(=O)C(C#N)c1cccc2ccccc12 (centres undefined)
- TGI (A549 NSCLC): > 100 µM
- TGI (CAKI-1 renal): > 100 µM
- TGI (LOX IMVI melanoma): > 100 µM
- TGI (SF-268 CNS): > 100 µM
- TGI (SK-MEL-5 melanoma): > 100 µM
- TGI (SK-OV-3 ovarian): > 100 µM
- TGI (SNB-75 CNS): > 100 µM
- TGI (SR leukemia): > 100 µM

Structure (SMILES): CCCCc1ccc2nc(NC(=O)OC)[nH]c2c1
- GI50 (A549 NSCLC): 0.0868 µM
- TGI (A549 NSCLC): > 100 µM
- GI50 (CAKI-1 renal): 0.0314 µM
- TGI (CAKI-1 renal): 12.9 µM
- GI50 (LOX IMVI melanoma): 0.0789 µM
- TGI (LOX IMVI melanoma): > 55.9 µM
- GI50 (SF-268 CNS): 0.0616 µM
- TGI (SF-268 CNS): 16.9 µM
- GI50 (SK-MEL-2 melanoma): 0.789 µM
- TGI (SK-MEL-2 melanoma): > 62.1 µM
- GI50 (SK-MEL-5 melanoma): 0.035 µM
- TGI (SK-MEL-5 melanoma): 2.57 µM
- GI50 (SK-OV-3 ovarian): 0.0534 µM
- TGI (SK-OV-3 ovarian): > 47.1 µM
- GI50 (SNB-75 CNS): 0.0257 µM
- TGI (SNB-75 CNS): 1.18 µM
- GI50 (T-47D breast): 0.0392 µM
- TGI (T-47D breast): > 100 µM

Structure (SMILES): C1=C[C@@H]2c3ccc4cnccc4c3NC[C@@H]2C1
- TGI (A549 NSCLC): > 100 µM
- TGI (SF-268 CNS): > 100 µM
- TGI (SK-MEL-5 melanoma): > 100 µM
- TGI (SK-OV-3 ovarian): > 100 µM
- TGI (SNB-75 CNS): > 100 µM
- TGI (SR leukemia): > 100 µM
- TGI (T-47D breast): > 100 µM

Structure (SMILES): Cc1nc2c(cnn2-c2ccnc3c(C(F)(F)F)cccc23)c(=O)o1
- GI50 (A549 NSCLC): > 100 µM
- TGI (A549 NSCLC): > 100 µM
- GI50 (CAKI-1 renal): > 100 µM
- TGI (CAKI-1 renal): > 100 µM
- GI50 (LOX IMVI melanoma): > 100 µM
- TGI (LOX IMVI melanoma): > 100 µM
- GI50 (SF-268 CNS): > 100 µM
- TGI (SF-268 CNS): > 100 µM
- GI50 (SK-MEL-2 melanoma): > 100 µM
- TGI (SK-MEL-2 melanoma): > 100 µM
- GI50 (SK-MEL-5 melanoma): > 100 µM
- TGI (SK-MEL-5 melanoma): > 100 µM
- GI50 (SK-OV-3 ovarian): > 100 µM
- TGI (SK-OV-3 ovarian): > 100 µM
- GI50 (SNB-75 CNS): > 100 µM
- TGI (SNB-75 CNS): > 100 µM
- GI50 (T-47D breast): > 100 µM
- TGI (T-47D breast): > 100 µM

Structure (SMILES): COC1OC(OC)C2C(c3c(C)cc(C)cc3C)=NOC12 (centres undefined)
- TGI (A549 NSCLC): > 100 µM
- TGI (CAKI-1 renal): > 100 µM
- TGI (LOX IMVI melanoma): > 100 µM
- TGI (SF-268 CNS): > 100 µM
- TGI (SK-MEL-2 melanoma): > 100 µM
- TGI (SK-MEL-5 melanoma): > 100 µM
- TGI (SK-OV-3 ovarian): > 100 µM
- TGI (SNB-75 CNS): > 100 µM
- TGI (SR leukemia): > 100 µM

Structure (SMILES): C=C1C(=O)O[C@@H]2[C@@H]3O[C@@](C)(CC/C=C(\C)CCC[C@@H]2C)[C@H](O)C[C@@H]13
- GI50 (A549 NSCLC): 3.73 µM
- TGI (A549 NSCLC): 14.7 µM
- GI50 (CAKI-1 renal): 1.73 µM
- TGI (CAKI-1 renal): 4.5 µM
- GI50 (LOX IMVI melanoma): 1.77 µM
- TGI (LOX IMVI melanoma): 4.03 µM
- GI50 (SF-268 CNS): 3.04 µM
- TGI (SF-268 CNS): 10 µM
- GI50 (SK-MEL-2 melanoma): 2.41 µM
- TGI (SK-MEL-2 melanoma): 4.85 µM
- GI50 (SK-MEL-5 melanoma): 1.72 µM
- TGI (SK-MEL-5 melanoma): 3.49 µM
- GI50 (SK-OV-3 ovarian): 13.1 µM
- TGI (SK-OV-3 ovarian): 25.8 µM
- GI50 (SNB-75 CNS): 2.58 µM
- TGI (SNB-75 CNS): 13.4 µM
- GI50 (T-47D breast): 2.02 µM
- TGI (T-47D breast): 4.7 µM

Structure (SMILES): COc1ccc(C2SC(N)=Nc3c2c(C)nn3C(=O)c2ccncc2)cc1 (centres undefined)
- TGI (A549 NSCLC): > 100 µM
- TGI (LOX IMVI melanoma): > 100 µM
- TGI (SF-268 CNS): > 100 µM
- TGI (SK-MEL-2 melanoma): > 100 µM
- TGI (SK-MEL-5 melanoma): > 100 µM
- TGI (SK-OV-3 ovarian): > 100 µM
- TGI (SNB-75 CNS): > 100 µM
- TGI (SR leukemia): 73 µM
- TGI (T-47D breast): > 100 µM

Structure (SMILES): CCCCN(CCCC)C(=Nc1ccccc1)N(CCCC)CCCC
- TGI (A549 NSCLC): 27.9 µM
- TGI (LOX IMVI melanoma): 13.6 µM
- TGI (SF-268 CNS): 46.8 µM
- TGI (SK-MEL-2 melanoma): 18.9 µM
- TGI (SK-OV-3 ovarian): 22.6 µM
- TGI (SNB-75 CNS): 37.7 µM

Structure (SMILES): O=C(CC1Sc2ccccc2NC1=O)Nc1cccc(Cl)c1 (centres undefined)
- TGI (A549 NSCLC): > 100 µM
- TGI (CAKI-1 renal): > 100 µM
- TGI (LOX IMVI melanoma): 48.2 µM
- TGI (SF-268 CNS): > 100 µM
- TGI (SK-MEL-2 melanoma): > 100 µM
- TGI (SK-MEL-5 melanoma): > 100 µM
- TGI (SNB-75 CNS): > 100 µM
- TGI (SR leukemia): 97.5 µM

Structure (SMILES): Clc1ccc(Cl)c(N/N=C\c2c[nH]c3ccccc23)c1
- GI50 (A549 NSCLC): 14.1 µM
- TGI (A549 NSCLC): 29.4 µM
- GI50 (CAKI-1 renal): 5.43 µM
- TGI (CAKI-1 renal): 19.6 µM
- GI50 (LOX IMVI melanoma): 4.21 µM
- TGI (LOX IMVI melanoma): 74.7 µM
- GI50 (SF-268 CNS): > 100 µM
- TGI (SF-268 CNS): > 100 µM
- GI50 (SK-MEL-2 melanoma): 13.1 µM
- TGI (SK-MEL-2 melanoma): 26.7 µM
- GI50 (SK-MEL-5 melanoma): 10 µM
- TGI (SK-MEL-5 melanoma): 23.1 µM
- GI50 (SK-OV-3 ovarian): 12.8 µM
- TGI (SK-OV-3 ovarian): 27.2 µM
- GI50 (SR leukemia): 4.14 µM
- TGI (SR leukemia): 32.2 µM

Structure (SMILES): CC(C)NC(=O)OCc1nnn2c1C(OC(=O)NC(C)C)CC2 (centres undefined)
- TGI (A549 NSCLC): > 100 µM
- TGI (CAKI-1 renal): > 100 µM
- TGI (SK-MEL-2 melanoma): > 100 µM
- TGI (SK-MEL-5 melanoma): > 100 µM
- TGI (SK-OV-3 ovarian): > 100 µM
- TGI (SNB-75 CNS): > 100 µM
- TGI (SR leukemia): > 100 µM

Structure (SMILES): CCC12C=CCN3CC[C@]4(C(=C(C(=O)OC)[C@@H]1Nc1ncnc5c1ncn5C1OC(COC(C)=O)C(OC(C)=O)C1OC(C)=O)Nc1ccccc14)C32 (some centres undefined)
- TGI (A549 NSCLC): 13.2 µM
- TGI (CAKI-1 renal): 12.6 µM
- TGI (LOX IMVI melanoma): 3.25 µM
- TGI (SF-268 CNS): 5.11 µM
- TGI (SK-MEL-2 melanoma): 9.36 µM
- TGI (SK-MEL-5 melanoma): 8.47 µM
- TGI (SK-OV-3 ovarian): 5.32 µM
- TGI (SNB-75 CNS): 7.03 µM
- TGI (SR leukemia): 6.17 µM

Structure (SMILES): COC1CCC(=C2C(=O)OC(C)(C)OC2=O)N1 (centres undefined)
- TGI (A549 NSCLC): > 100 µM
- TGI (CAKI-1 renal): > 100 µM
- TGI (LOX IMVI melanoma): > 100 µM
- TGI (SF-268 CNS): > 100 µM
- TGI (SK-MEL-2 melanoma): > 100 µM
- TGI (SK-OV-3 ovarian): > 100 µM
- TGI (SNB-75 CNS): > 100 µM

Structure (SMILES): NC(=O)C/C=C/CC(N)=O
- TGI (A549 NSCLC): > 100 µM
- TGI (CAKI-1 renal): > 100 µM
- TGI (LOX IMVI melanoma): > 100 µM
- TGI (SF-268 CNS): > 100 µM
- TGI (SK-MEL-2 melanoma): > 100 µM
- TGI (SK-MEL-5 melanoma): > 100 µM
- TGI (SK-OV-3 ovarian): > 100 µM
- TGI (SNB-75 CNS): > 100 µM
- TGI (T-47D breast): > 100 µM

Structure (SMILES): O=C(Nc1ccc(Cl)c(Cl)c1)Nc1ccc(Cl)c([N+](=O)[O-])c1
- GI50 (A549 NSCLC): 1.41 µM
- TGI (A549 NSCLC): 8.27 µM
- GI50 (LOX IMVI melanoma): 1.03 µM
- TGI (LOX IMVI melanoma): 3.81 µM
- GI50 (SF-268 CNS): 1.76 µM
- TGI (SF-268 CNS): 6.84 µM
- GI50 (SK-MEL-2 melanoma): 1.14 µM
- TGI (SK-MEL-2 melanoma): 5.5 µM
- GI50 (SK-MEL-5 melanoma): 2 µM
- TGI (SK-MEL-5 melanoma): 5.08 µM
- GI50 (SK-OV-3 ovarian): 2.01 µM
- TGI (SK-OV-3 ovarian): 5.89 µM
- GI50 (SNB-75 CNS): 4.74 µM
- TGI (SNB-75 CNS): 24.4 µM
- GI50 (SR leukemia): 2.58 µM
- TGI (SR leukemia): > 25 µM
- GI50 (T-47D breast): 0.729 µM
- TGI (T-47D breast): 2.83 µM
